The text below walks through data of patent US11753407B2, “Compounds for treating spinal muscular atrophy” (PTC Therapeutics, Inc., priority 2012, dated 2023).

In data set [1] the test system is SMN2 minigene mRNA (SMN2-A minigene) in HEK293H cells. In words: SMN2 minigene mRNA splicing RT-qPCR assay in cultured cells. The data set is classed as cell-based, human. As to conditions: Homo sapiens, HEK293-H; concentration increasing full length SMN2 mRNA 1.5-fold relative to vehicle-treated cells; HEK293H cells with SMN2-A minigene, 24 hours, 7-point concentration data; read-out: EC1.5x for production of full length SMN2 mRNA. The procedure, abridged: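 HEK293H cells stably carrying SMN2-A minigene treated with compounds (7-point, 3.16-fold dilutions, duplicates) for 24 h at 37 °C. Full-length exon 7-containing minigene mRNA measured by multiplex RT-qPCR with GAPDH, normalized and expressed relative to vehicle (modified ΔΔCt); EC1.5× is concentration giving 1.5-fold increase.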
For orientation: In qPCR the cycle at which signal appears reflects the starting amount.

The subject of data set [2] is Smn protein in SMA patient fibroblast cells (GM03813). In words: Smn protein assay in cultured cells (SMN HTRF). The format is cell-based, human. As to conditions: SMA patient fibroblast cells, 48 hours; for EC1.5x for Smn protein expression: 7-point concentration curve, SMN HTRF, concentration producing 1.5 times Smn protein vs DMSO vehicle control; for maximum fold (Fold) increase of Smn protein: 7-point concentration data, fold relative to vehicle control. A digest of the protocol:
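SMA patient fibroblasts (5,000/well, DMEM-10% FBS) treated 48 h at 37° C with 7-point, 3.16-fold compound series in triplicate; lysates read by SMN HTRF (665/620 nm ratio). Fold Smn increase over DMSO vehicle derived; EC1.5× is concentration giving 1.5-fold Smn, with maximum fold also reported.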
A general note: Time-resolved FRET reads energy transfer from a long-lived donor to a nearby acceptor.

Some results are limits rather than exact numbers.

Broadly, the melting point is the temperature, or range, at which the solid turns liquid. `Cc1cn2cc(-c3cc(=O)n4cc(N5CCC(N6CCCC6)CC5)ccc4n3)ccc2n1` [Compound 437, 2-(2-methylimidazo[1,2-a]pyridin-6-yl)-7-[4-(pyrrolidin-1-yl)piperidin-1-yl]-4H-pyrido[1,2-a]pyrimidin-4-one] returned a melting point of 230 to 232 °C. Besides, the EC (1.5-fold increase) in data set [1] fell in the range of 0.1 to 0.3 µM. In addition, in data set [2], the “EC1.5x for Smn protein expression” value is “*** (an EC1.5× between >0.3 μM and ≤1 μM is indicated by three stars (***))”; the “maximum fold (Fold) increase of Smn protein” value (“maximum fold (Fold) increase” for short) was “**** (a fold increase between >1.5 and ≤1.65 is indicated by four stars (****))”.
For the compound `CN[C@H]1CCN(c2ccc3nc(-c4ccc(OC)c(F)c4)cc(=O)n3c2)C1` [Compound 222, 2-(3-fluoro-4-methoxyphenyl)-7-[(3S)-3-(methylamino)pyrrolidin-1-yl]-4H-pyrido[1,2-a]pyrimidin-4-one], the melting point was in the range of 208 to 216 °C. For the same compound, in data set [1], the EC (1.5-fold increase) was in the range of 0.3 to 1 µM. Also, in data set [2], the “maximum fold (Fold) increase” value was “*** (a fold increase between >1.35 and ≤1.5 is indicated by three stars (***))”.
Regarding `Cc1cn2nc(-c3cc(=O)n4cc(N5C[C@@H](C)N(C)[C@@H](C)C5)ccc4n3)cc2c(C)n1` [Compound 259, 2-(4,6-dimethylpyrazolo[1,5-a]pyrazin-2-yl)-7-[(3R,5S)-3,4,5-trimethylpiperazin-1-yl]-4H-pyrido[1,2-a]pyrimidin-4-one], the melting point is 254 to 260 °C. Moreover, in data set [1], the EC (1.5-fold increase) was below 0.1 µM. For the same compound, in data set [2], the “EC1.5x for Smn protein expression” value was “*** (an EC1.5× between >0.3 μM and ≤1 μM is indicated by three stars (***))”; the “maximum fold (Fold) increase” value was “**** (a fold increase between >1.5 and ≤1.65 is indicated by four stars (****))”.
The compound `COc1ccc(-c2cc(=O)n3cc(N4CCN[C@@H](C)C4)ccc3n2)cc1C(F)(F)F` [Compound 69, 2-[4-methoxy-3-(trifluoromethyl)phenyl]-7-[(3S)-3-methylpiperazin-1-yl]-4H-pyrido[1,2-a]pyrimidin-4-one] had a melting point of 195 to 200 °C. Further, the EC (1.5-fold increase) in data set [1] lay in the range of 0.3 to 1 µM. Also, in data set [2], the “EC1.5x for Smn protein expression” value was “*** (an EC1.5× between >0.3 μM and ≤1 μM is indicated by three stars (***))”; the “maximum fold (Fold) increase” value is “**** (a fold increase between >1.5 and ≤1.65 is indicated by four stars (****))”.
`Cc1cn2nc(-c3cc(=O)n4cc(C5=CCNCC5)cc(C)c4n3)cc2c(C)n1` [Compound 480, 2-(4,6-dimethylpyrazolo[1,5-a]pyrazin-2-yl)-9-methyl-7-(1,2,3,6-tetrahydropyridin-4-yl)-4H-pyrido[1,2-a]pyrimidin-4-one] had a melting point above 300 °C. The EC (1.5-fold increase) in data set [1] was below 0.1 µM. Besides, in data set [2], the “EC1.5x for Smn protein expression” value was “**** (an EC1.5x≤0.3 μM is indicated by four stars (****))” and the “maximum fold (Fold) increase” value is “***** (a fold increase >1.65 is indicated by five stars (*****))”.
As to `Cc1cn2nc(-c3cc(=O)n4cc(N5CCC(N6CCOCC6)CC5)ccc4n3)cc2c(C)n1` [Compound 428, 2-(4,6-dimethylpyrazolo[1,5-a]pyrazin-2-yl)-7-[4-(morpholin-4-yl)piperidin-1-yl]-4H-pyrido[1,2-a]pyrimidin-4-one], the melting point was 192 to 195 °C. In addition, in data set [1], the EC (1.5-fold increase) lay in the range of 0.3 to 1 µM. For the same compound, in data set [2], the “EC1.5x for Smn protein expression” value is “** (an EC1.5× between >1 μM and ≤3 μM is indicated by two stars (**))”; the “maximum fold (Fold) increase” value was “*** (a fold increase between >1.35 and ≤1.5 is indicated by three stars (***))”.
In turn, `Cc1cn2nc(-c3cc(=O)n4cc(N5CCNCC5)ccc4n3)cc2c(C2CC2)n1` [Compound 683, 2-(4-cyclopropyl-6-methylpyrazolo[1,5-a]pyrazin-2-yl)-7-(piperazin-1-yl)-4H-pyrido[1,2-a]pyrimidin-4-one] gave a melting point of 226 to 229 °C. Also, the EC (1.5-fold increase) in data set [1] is below 0.1 µM. Also, in data set [2], the “EC1.5x for Smn protein expression” value is “*** (an EC1.5× between >0.3 μM and ≤1 μM is indicated by three stars (***))”; the “maximum fold (Fold) increase” value is “***** (a fold increase >1.65 is indicated by five stars (*****))”.
For `CCc1nc(C)cn2nc(-c3cc(=O)n4cc(C5CCN(CC)CC5)ccc4n3)cc12` [Compound 658, 2-(4-ethyl-6-methylpyrazolo[1,5-a]pyrazin-2-yl)-7-(1-ethylpiperidin-4-yl)-4H-pyrido[1,2-a]pyrimidin-4-one], the melting point lay in the range of 194 to 196 °C. Moreover, the EC (1.5-fold increase) in data set [1] is below 0.1 µM. Also, in data set [2], the “EC1.5x for Smn protein expression” value was “**** (an EC1.5x≤0.3 μM is indicated by four stars (****))” and the “maximum fold (Fold) increase” value is “***** (a fold increase >1.65 is indicated by five stars (*****))”.
The like results for `CCN1CCC(c2ccc3nc(-c4ccc5nn(C)cc5c4)cc(=O)n3n2)CC1` [Compound 523, 7-(1-ethylpiperidin-4-yl)-2-(2-methyl-2H-indazol-5-yl)-4H-pyrimido[1,2-b]pyridazin-4-one] were, in that order, 253 to 255 °C, below 0.1 µM, “**** (an EC1.5x≤0.3 μM is indicated by four stars (****))” and “***** (a fold increase >1.65 is indicated by five stars (*****))”.
In turn, `CN1CCN(c2ccc3nc(-c4ccc5c(cnn5C)c4)cc(=O)n3c2)CC1` [Compound 489, 2-(1-methyl-1H-indazol-5-yl)-7-(4-methylpiperazin-1-yl)-4H-pyrido[1,2-a]pyrimidin-4-one] showed a melting point of 194 to 196 °C. For the same compound, the EC (1.5-fold increase) in data set [1] is 0.1 to 0.3 µM. In data set [2], the “EC1.5x for Smn protein expression” value is “** (an EC1.5× between >1 μM and ≤3 μM is indicated by two stars (**))”; the “maximum fold (Fold) increase” value was “**** (a fold increase between >1.5 and ≤1.65 is indicated by four stars (****))”.
The compound `Cc1cn2nc(-c3cc(=O)n4cc(N5CC[C@@H](CN)C5)ccc4n3)cc2c(C)n1` [Cpd 764, 7-[(3S)-3-(aminomethyl)pyrrolidin-1-yl]-2-(4,6-dimethylpyrazolo[1,5-a]pyrazin-2-yl)-4H-pyrido[1,2-a]pyrimidin-4-one] showed a melting point of 244 to 246 °C. In data set [1], the EC (1.5-fold increase) was in the range of 1 to 3 µM. In data set [2], the “EC1.5x for Smn protein expression” value is “* (An EC1.5× for Smn protein expression between >3 μM and ≤10 μM is indicated by one star (*))”; the “maximum fold (Fold) increase” value is “*** (a fold increase between >1.35 and ≤1.5 is indicated by three stars (***))”.
For `Cc1cn2ccc(-c3cc(=O)n4cc(N5CCN(C)CC5)ccc4n3)cc2n1` [Compound 557, 2-(2-methylimidazo[1,2-a]pyridin-7-yl)-7-(4-methylpiperazin-1-yl)-4H-pyrido[1,2-a]pyrimidin-4-one], the melting point was 285 to 288 °C. The EC (1.5-fold increase) in data set [1] fell in the range of 1 to 3 µM. Besides, in data set [2], the “maximum fold (Fold) increase” value was “* (A maximum fold increase of ≤1.2 is indicated by one star (*))”.
For `Cc1nc2cc(-c3cc(=O)n4cc(N5CCN[C@@H](C)C5)ccc4n3)ccc2s1` [Compound 135, 2-(2-methyl-1,3-benzothiazol-5-yl)-7-[(3S)-3-methylpiperazin-1-yl]-4H-pyrido[1,2-a]pyrimidin-4-one], the melting point was in the range of 174 to 180 °C. The EC (1.5-fold increase) in data set [1] is below 0.1 µM. In addition, in data set [2], the “EC1.5x for Smn protein expression” value was “**** (an EC1.5x≤0.3 μM is indicated by four stars (****))”; the “maximum fold (Fold) increase” value is “**** (a fold increase between >1.5 and ≤1.65 is indicated by four stars (****))”.
On to `CCc1nc(C)cn2nc(-c3cc(=O)n4cc(N5CCN(C)CC5)ccc4n3)cc12` [Compound 547, 2-(4-ethyl-6-methylpyrazolo[1,5-a]pyrazin-2-yl)-7-(4-methylpiperazin-1-yl)-4H-pyrido[1,2-a]pyrimidin-4-one], for which the melting point fell in the range of 250 to 252 °C. For the same compound, the EC (1.5-fold increase) in data set [1] was below 0.1 µM. Besides, in data set [2], the “EC1.5x for Smn protein expression” value is “**** (an EC1.5x≤0.3 μM is indicated by four stars (****))” and the “maximum fold (Fold) increase” value is listed as “***** (a fold increase >1.65 is indicated by five stars (*****))”.
The compound `COc1ccc(-c2cc(=O)n3cc(C4=CCN(C5COC5)CC4)ccc3n2)cc1OC` [Compound 364, 2-(3,4-dimethoxyphenyl)-7-[1-(oxetan-3-yl)-1,2,3,6-tetrahydropyridin-4-yl]-4H-pyrido[1,2-a]pyrimidin-4-one] came in with a melting point of 178 to 180 °C. The EC (1.5-fold increase) in data set [1] lay in the range of 1 to 3 µM. In data set [2], the “maximum fold (Fold) increase” value is given as “* (A maximum fold increase of ≤1.2 is indicated by one star (*))”.
`C[C@H]1CN(c2ccc3nc(-c4ccc(O)c(OC(F)F)c4)cc(=O)n3c2)CCN1` [Compound 102, 2-[3-(difluoromethoxy)-4-hydroxyphenyl]-7-[(3S)-3-methylpiperazin-1-yl]-4H-pyrido[1,2-a]pyrimidin-4-one] showed a melting point of 192 to 197 °C. For the same compound, the EC (1.5-fold increase) in data set [1] is 0.3 to 1 µM. For the same compound, in data set [2], the “EC1.5x for Smn protein expression” value is “*** (an EC1.5× between >0.3 μM and ≤1 μM is indicated by three stars (***))”; the “maximum fold (Fold) increase” value is given as “***** (a fold increase >1.65 is indicated by five stars (*****))”.
